Experimental data as given in article PMC8751651 (ACS Omega, 2021).
Entries after “also recorded” stand apart in the source; their conditions may differ. Where a SMILES comes first, the peptide text is derived from it. Where no end group is shown, it is not given here. The star is where a group is joined. Biotin = O=C1N[C@H]2[C@H](CS[C@H]2CCCCC(=O)*)N1

Columns and labels:
[1] = target: T1, SARS-CoV-2 RBD protein (Severe acute respiratory syndrome coronavirus 2, UniProt P0DTC2); format: binding
[2] = system: influenza A virus; format: binding
[3] = system: inactivated SARS-CoV-2 virus; format: binding, SARS-CoV-2 (Isolate: USA-WA1/2020)
[4] = target: T1, SARS-CoV-2 RBD protein; format: binding; remark: listed apart in the source

Compound	SPR binding curves / binding efficiency [1]	gold nanoparticles on magnetic beads (TEM) [2]	binding to inactivated virus [3]	gold nanoparticles on magnetic beads (TEM) [3]	SPR binding [4]
CC(C)C[C@H](NC(=O)[C@H](Cc1ccccc1)NC(=O)[C@H](CC(=O)O)NC(=O)[C@H](Cc1ccccc1)NC(=O)[C@H](CS)NC(=O)[C@H](CO)NC(=O)CCCC[C@@H]1SC[C@@H]2NC(=O)N[C@@H]21)C(=O)N[C@@H](CC(N)=O)C(=O)N[C@@H](Cc1c[nH]c2ccccc12)C(=O)N[C@@H](C)C(=O)N[C@@H](CO)C(=O)N[C@@H](CS)C(=O)N[C@@H](CC(=O)O)C(=O)NCC(=O)NCC(=O)NCC(=O)N[C@@H](CO)C(=O)O [peptide 1] (Biotin-SCFDFLNWASCDGGGS-OH; C-terminus assumed)	can efficiently bind to the SARS-CoV-2 RBD protein; also recorded: highest binding efficiency	no gold nanoparticles are observed bound to the surface	can specifically bind to the SARS-CoV-2 virus	gold nanoparticles (dashed red circle) have conjugated onto the magnetic beads; also recorded: gold nanoparticles are observed on the magnetic beads	significant binding
Biotin-SCFDFLNWASCDGGGS (cysteine pairing not given here) [Biotinylated peptide 1]	–	–	–	gold nanoparticles (dashed red circle) have conjugated onto the magnetic beads	–
